{"source": "patent US20040142823A1", "about": "“Adjuvant compositions and pesticides” (priority 2003, published 2004)", "origin": "cited, not measured here", "note": "Like-named read-outs stand apart in the source and are kept apart here."}
{"smiles": "CNC(=O)CSP(=S)(OC)OC", "note": "[Cygon, dimethoate]", "values": [{"measurement": "Time to lose 50 percent of pest control power", "setting": "mixed in water of pH 9", "value": 48, "unit": "min"}, {"measurement": "Time to lose 50 percent of pest control power", "setting": "pH of 6", "value": 720, "unit": "min"}]}
